Test results: patent US20050215433A1, “Aromatic fluid as agricultural solvent” (priority 2004, published 2005)

How the values were obtained:
Format in all cases: physicochemical
[1] = Kauri Butanol Value, variation of ASTM D-1133-02; conditions: 20 grams kauri-butanol solution titrated with the solvent
Description: Kauri Butanol Value was determined by a variation of ASTM D-1133-02. In a […] Erlenmeyer flask, 20 grams (±0.1 grams) of kauri-butanol solution was added. The flask was placed in a water bath at 20° C. (±1° C.). A 50-milliliter burette was filled with the solvent being tested. The standardized kauri-butanol solution was titrated with the solvent being tested until the end point was reached. A photocopy of the residence listings from a telephone book was used as the 10 point print sample placed directly beneath the water bath. The tester looked through the liquid at the print to observe the end point. […] The volume in milliliters of solvent added to the flask to produce turbidity was recorded. The kauri-butanol values were calculated using the following formula: Kauri-Butanol value=[65(C−B)/(A−B)]+40 (1) where A is the milliliters of toluene required to titrate 20 grams of kauri-butanol solution (the A factor should be on the certificate of analysis that accompanies the standardized kauri-butanol solution); • B is the milliliters of n-heptane-toluene blend required to titrate 20 grams of kauri butanol solution (the B factor should be on the certificate of analysis that accompanies the standardized kauri-butanol solution); and • C is the milliliters of solvent being tested that are required to titrate 20 grams of kauri-butanol solution. […]

[2] = Solubility of pesticide in the solvent (highest concentration without crystallization); conditions: no crystals after seeding; for Solubility in Weight %: Bromoxynil Octanoate: pesticide Bromoxynil Octanoate dissolved in the solvent; for Solubility in Weight %: Chlorpyrifos: pesticide Chlorpyrifos dissolved in the solvent; for Solubility in Weight %: Pendimethalin: pesticide Pendimethalin dissolved in the solvent; for Solubility in Weight %: Permethrin: pesticide Permethrin dissolved in the solvent; for Solubility in Weight %: Trifluralin: pesticide Trifluralin dissolved in the solvent
Description: Solubility was determined by adding a predetermined weight of pesticide to a vial and then adding the solvent to within 10 grams to make the appropriate concentrations. Several different concentrations were made. […] The vials were capped and inverted several times to completely dissolve the pesticide. If the pesticide was not completely dissolved, the vials were placed in a beaker filled with warm water until the pesticide dissolved. The water was not heated closer than 30° C. of the flash point of the solvent being tested. The vial was removed from the heated beaker and was left to stand for 3 hours at room temperature. The vial was then placed into a chiller, an ethylene glycol bath, if a lower temperature was desired. […] If crystals were present, the solutions in the vials were diluted, the vials were inverted several times, the vials were either heated or cooled, and the vials were checked for crystals. The vials were allowed to stand for 24 hours and were then rechecked for crystals. If crystals were still absent after 24 hours, one crystal of pesticide was added to the vial (seeding) and the vial was inverted several times to assure the crystal was dissolved. The vial was left to stand for 48 hours and rechecked for crystals. If crystals were present, the solution was diluted further and the previous steps were repeated until no crystals appeared after seeding. […] The test was started again at the beginning with higher concentrations of the pesticide in the solvent.

[3] = Mixed Aniline Point, variation of ASTM D-611-82; conditions: 10 milliliters aniline + 5 milliliters sample + 5 milliliters n-heptane
Description: For the Mixed Aniline Point, 10 milliliters of aniline was added to a test tube. The test tube was fitted with a suitable stirrer and thermometer. The thermometer was centered in the test tube and some padding was kept at the base of the stand to avoid breakage of the test tube if it slipped. […] Added to the test tube containing aniline was 5 milliliters of sample and 5 milliliters of n-heptane. The test tube was placed into a cooling bath of isopropyl alcohol and dry ice. The mixture was continuously stirred rapidly using 2 inch strokes, avoiding introduction of air bubbles. The mixture was allowed to cool below the first appearance of turbidity and the Mixed Aniline Point was recorded.

Molecule: Cc1cc(C)cc(C(C)(C)C)c1 [Example 5, 5-ter-Butyl-m-Xylene]
- Kauri-Butanol Value [1]: 66
- Solubility in Weight %: Bromoxynil Octanoate [2]: 61 Weight %
- Solubility in Weight %: Chlorpyrifos [2]: 65 Weight %
- Solubility in Weight %: Pendimethalin [2]: 35 Weight %
- Solubility in Weight %: Permethrin [2]: 65 Weight %
- Solubility in Weight %: Trifluralin [2]: 50 Weight %
- Mixed Aniline Point [3]: 28 °C

Molecule: CN1CCCC1=O [Example 10, 1-Methyl-2-Pyrrilidinone]
- Solubility in Weight %: Bromoxynil Octanoate [2]: 75 Weight %
- Solubility in Weight %: Chlorpyrifos [2]: 80 Weight %
- Solubility in Weight %: Pendimethalin [2]: 55 Weight %
- Solubility in Weight %: Permethrin [2]: 75 Weight %
- Solubility in Weight %: Trifluralin [2]: 70 Weight %

Molecule: CCCCCCCCCCCCc1ccccc1 [Example 17, Dodecyl Benzene]
- Kauri-Butanol Value [1]: 36
- Solubility in Weight %: Bromoxynil Octanoate [2]: 40 Weight %
- Solubility in Weight %: Chlorpyrifos [2]: 50 Weight %
- Solubility in Weight %: Pendimethalin [2]: 20 Weight %
- Solubility in Weight %: Permethrin [2]: 45 Weight %
- Solubility in Weight %: Trifluralin [2]: 25 Weight %
- Mixed Aniline Point [3]: 43 °C

Molecule: Dipentylindan [Example 12]
- Solubility in Weight %: Bromoxynil Octanoate [2]: 25 Weight %
- Solubility in Weight %: Chlorpyrifos [2]: 40 Weight %
- Solubility in Weight %: Pendimethalin [2]: <15 Weight %
- Solubility in Weight %: Permethrin [2]: 50 Weight %
- Solubility in Weight %: Trifluralin [2]: <15 Weight %

Molecule: Monopentylindan [Example 11]
- Solubility in Weight %: Bromoxynil Octanoate [2]: 50 Weight %
- Solubility in Weight %: Chlorpyrifos [2]: 60 Weight %
- Solubility in Weight %: Pendimethalin [2]: 25 Weight %
- Solubility in Weight %: Permethrin [2]: 65 Weight %
- Solubility in Weight %: Trifluralin [2]: 35 Weight %
